According to publication PMC8304783, “Antiadhesive Properties of Imidazolium Ionic Liquids Based on (−)-Menthol Against Candida spp” (International Journal of Molecular Sciences, 2021):

What was measured:
Type in all cases: cell-based
C. albicans SC5314 = experiment: Minimal inhibitory and fungicidal concentrations (broth microdilution, CLSI M27-A3 modified); details: Candida albicans, 28 °C; for MFC: 120 h, replated on YPD agar, 5 days, read-out: Minimal fungicidal concentration (MFC); for MIC90: ≥90% growth inhibition, 48 h, YPD, read-out: Minimal inhibitory concentration (MIC90)
Method: (§1) Experiments were performed according to the Clinical and Laboratory Standards Institute (2008), 3rd ed. M27-A3 [51], with modifications described previously. Briefly, MICs were determined by serially diluting ILs in YPD medium in sterile 96-well plates (Sarstedt) and inoculating with fungal suspensions (final OD600 per well = 0.01). After incubation (48 h; 28 °C), the OD600 was measured (ASYS UVM 340 Biogenet). […] Each well was then replated on YPD agar and incubated for 5 days at 28 °C.

C. glabrata ATCC90030 = experiment: as above; details: Nakaseomyces glabratus, 28 °C; for MFC: 120 h, replated on YPD agar, 5 days, read-out: Minimal fungicidal concentration (MFC); for MIC90: ≥90% growth inhibition, 48 h, YPD, read-out: Minimal inhibitory concentration (MIC90)
Method: as §1

C. krusei ATCC6258 = experiment: as above; details: Pichia kudriavzevii, 28 °C; for MFC: 120 h, replated on YPD agar, 5 days, read-out: Minimal fungicidal concentration (MFC); for MIC90: ≥90% growth inhibition, 48 h, YPD, read-out: Minimal inhibitory concentration (MIC90)
Method: as §1

C. parapsilosis CBS10947 = experiment: as above; details: Lodderomyces parapsilosis, 28 °C; for MFC: 120 h, replated on YPD agar, 5 days, read-out: Minimal fungicidal concentration (MFC); for MIC90: ≥90% growth inhibition, 48 h, YPD, read-out: Minimal inhibitory concentration (MIC90)
Method: as §1

sheep erythroid PMs = experiment: Hemolysis assay; details: sheep RBCs
Method: To examine any possible toxic effect towards animal cells, ILs were tested for their lytic activity on sheep erythroid PMs, in comparison to AMB (Table 3). For this part of study, higher concentrations were selected, corresponding to MFC values of tested fungi (12.5; 25 and 50 µM in case of ILs, and 0.25; 0.5 and 1 µM in case of AMB, Table 1). The compounds were ranked in terms of hemolytic activity as follows: 1a > 1b > 2a. IL with alkoxymethyl chain (2a) produced <5% hemolysis, regardless of the concentration used. Compounds with alkyl substituents (1a and 1b) were more hemolytic in 12.5 than in 25 µM concentrations, and in the highest concentration (50 µM), both compounds produced >10% and >5% hemolysis, respectively.
ILs were tested for hemolytic activity, as described previously. Briefly, 5 mL of fresh sheep blood was centrifuged (2000 rpm, 15 min), washed with PBS and resuspended in PBS to achieve hematocrit level of 50%. Red blood cells (RBCs) were treated with ILs (concentrations = 12.5, 25 and 50 µM) for 2 h at 37 °C. Afterwards, RBCs were centrifuged (2000 rpm, 5 min) and the absorbance of the supernatant was measured at 540 nm (ASYS UVM 340 Biogenet). The percentage of hemolysis was determined in comparison to the hemoglobin absorbance released by a 1% SDS solution (100% hemolysis).

[1] = test system: C. albicans strain SC5314; experiment: Biofilm formation on dentures (crystal violet); details: for C. albicans biofilm on PFM dental crowns (CV staining) / C. albicans biofilm on acrylic dental crowns (CV staining) / C. albicans biofilm on dental alloy substructures (CV staining): 72 h biofilm, then ILs 25 µM for 2 h; for Visual eradication of C. albicans biofilm formed on dentures: dentures of different materials taken together, ILs 25 µM, 2 h
Excerpt: We evaluated the ability of ILs to eradicate C. albicans biofilm formation on a number of dentures, namely acrylic dental crowns, PFM dental crowns and dental alloy substructures (Figure 2). This approach has the following disadvantage: impossibility of reliable biofilm quantification. However, during in vivo Candida spp. infections and biofilm formation, the fungi attach themselves into porous structure of dentures, and thus we selected them for the studies over commonly used discs. Here, an IL concentration of 25 µM was selected for this investigation. In each condition, a C. albicans biofilm was formed after 72 h incubation, and the collected biomass was microscopically evaluated for the presence of hyphae, pseudohyphae and blastoconidia characteristic of C. albicans (Figure 2). Next, the materials were treated with ILs for 2 h and stained with crystal violet (CV). […] Microscopic observations of the stained biomass from dentures exposed to both 1a and 1b (Figure 2, white arrows) confirmed the presence of C. albicans hyphae and blastoconidia (data not shown).
To assess the influence of ILs on biofilm formation by C. albicans strain SC5314 on dentures, the following materials were used: acrylic dental crowns, porcelain-fused-to-metal (PFMs) dental crowns and dental alloy substructures. All dentures were kind gifts from Prof. M. Łukaszewicz (Wrocław, Poland). Prior to the experiments, the dentures were sterilized by 1 h incubation in 70% pure ethanol (EtOH) solution, washed with sterile water to remove EtOH residues and dried under aseptic conditions. The experiments were performed by aseptically placing dentures in YPD, supplemented with FBS, and inoculating them with YPD-grown C. albicans suspension (0.01% Vol/Vol). After 72 h of incubation at 37 °C, the dentures were treated for 2 h with the addition of ILs (conc. = 25 µM), washed with PBS and fixed with 0.1% CV solution for 10 min, then washed with PBS to remove the stain residue. The dentures were then dried and photographed. Microscopic preparations were made of biofilm samples which were imaged using the Zeiss Axio Imager A2 microscope equipped with Zeiss Axiocam 503 mono microscope camera.

C. albicans B3 = experiment: MIC90 and MFC towards clinical isolates; details: Candida albicans, clinical isolate B3 (FLC-sensitive); for MFC: read-out: Minimal fungicidal concentration (MFC); for MIC90: read-out: Minimal inhibitory concentration (MIC90)
Method: as §1
The effect of imidazolium ILs based on of (1R,2S,5R)‐(−)‐menthol was evaluated on clinical, fluconazole(FLC)‐resistant and FLC‐sensitive C. albicans isolates. C. albicans Gu4 and Gu5 strains were isolated from a patient before and after fluconazole administration, respectively.
Azole‐resistance of Gu5 origins in overexpression of CDR1 and CD R2. C. albicans B3 and B4 strains […]
Azole‐resistance of B4 results from overexpression of MDR1. The strains were generous gifts from Prof. S. Milewski (Gdańsk, Poland) and Prof. J. Morschhäuser (Wurzburg, Germany). They are originally referenced in: Franz, R., Ruhnke, M. & Morschhäuser, J. Molecular aspects of fluconazole resistance development in Candida albicans. Mycoses 42, 453–458, (1999).
Table S1 summarizes the minimal inhibitory and fungicidal concentration (MIC90 and MFC, respectively) values of ILs tested against the C. albicans isolates (for ILs structures see section 5.2. in the mai n text). No difference in case of MIC90 values between the strains was observed. However, MFC values were two‐fold lower for the compounds 1b and 2a in case of B3 and B4 isolates. The MFC value of the compound 1a wa s two‐fold higher on ly in ca se of Gu5 strain.
Table S1. Minimal inhibitory concentrations (MIC90; μM) and minimal fungicidal concentrations (MFC; μM) of ionic liquids (ILs ) or fluconazole (FLC) towards clinical C. albicans isolates.

[2] = ILs conc. 12.5 µM, 2 h, 37 °C, 1% SDS = 100% hemolysis
[3] = ILs conc. 25 µM, 2 h, 37 °C, 1% SDS = 100% hemolysis
[4] = ILs conc. 50 µM, 2 h, 37 °C, 1% SDS = 100% hemolysis

Row | Compound | MFC (C. albicans SC5314) [µM] | MIC90 (C. albicans SC5314) [µM] | MFC (C. glabrata ATCC90030) [µM] | MIC90 (C. glabrata ATCC90030) [µM] | MFC (C. krusei ATCC6258) [µM] | MIC90 (C. krusei ATCC6258) [µM] | MFC (C. parapsilosis CBS10947) [µM] | MIC90 (C. parapsilosis CBS10947) [µM] | Hemolytic activity (sheep erythroid PMs; [2]) [%] | Hemolytic activity (sheep erythroid PMs; [3]) [%] | Hemolytic activity (sheep erythroid PMs; [4]) [%] | C. albicans biofilm on PFM dental crowns (CV staining) [1] | C. albicans biofilm on acrylic dental crowns (CV staining) [1] | C. albicans biofilm on dental alloy substructures (CV staining) [1] | Visual eradication of C. albicans biofilm formed on dentures [1] | MFC (C. albicans B3) [µM] | MIC90 (C. albicans B3) [µM] | Hemolytic activity (sheep erythroid PMs; regardless of the concentration used (12.5; 25 and 50 µM)) [%]
1 | CCCCCCCCCn1cc[n+](CO[C@@H]2C[C@H](C)CC[C@H]2C(C)C)c1 [1a, 1-[(1R,2S,5R)-(−)-menthoxymethyl]-3-nonylimidazolium chloride] | 50 | 12.5 | 25 | 12.5 | 25 | 6.25 | 50 | 12.5 | 4.81 ± 0.02 | 1.51 ± 0.53 | 11.56 ± 2.13 | residual CV staining was observed | residual CV staining was observed | residual CV staining was observed | partially | 25 | 12.5 | 
2 | CCCCCCCCCCn1cc[n+](CO[C@@H]2C[C@H](C)CC[C@H]2C(C)C)c1 [1b, 3-decyl-1-[(1R,2S,5R)-(−)-menthoxymethyl]imidazolium chloride] | 50 | 25 | 25 | 25 | 25 | 25 | 25 | 25 | 2.1 ± 0.36 | 3.01 ± 0.39 | 3.23 ± 0.6 | residual CV staining was observed | residual CV staining was observed | residual CV staining was observed | partially | 25 | 25 | 
3 | CCCCCCCCCOCn1cc[n+](CO[C@@H]2C[C@H](C)CC[C@H]2C(C)C)c1 [2a, 1-(1R,2S,5R)-(−)-menthoxymethyl-3-nonyloxymethylimidazolium chloride] | 25 | 12.5 | 12.5 | 12.5 | 12.5 | 6.25 | 25 | 12.5 | 4.55 ± 0.82 | 1.78 ± 0.44 | 6.09 ± 0.48 | did not fully protect | protected | protected | totally | 12.5 | 12.5 | < 5
